The results in this text go back to ChEMBL document CHEMBL1151314, “Phenylethanoid glycosides from Digitalis purpurea and Penstemon linarioides with PKCalpha-inhibitory activity” (J Nat Prod, 1998).

The target in this test is Protein kinase C alpha type (Homo sapiens, UniProt P17252). Kind of test: Inhibition of human recombinant PKCalpha.
Broadly, the IC50 is the concentration that inhibits the measured activity by half. `COc1ccc(CCO[C@@H]2O[C@H](CO[C@@H]3O[C@@H](C)[C@H](O)[C@@H](O)[C@H]3O)[C@@H](OC(=O)/C=C/c3ccc(O)c(OC)c3)[C@H](O[C@@H]3O[C@@H](C)[C@H](O)[C@@H](O)[C@H]3O)[C@H]2O)cc1O`: the IC50 stood at 125 µM. Under `O=C(/C=C/c1ccc(O)c(O)c1)OC[C@H]1O[C@@H](OCCc2ccc(O)c(O)c2)[C@H](O)[C@@H](O[C@@H]2O[C@H](CO)[C@@H](O)[C@H](O)[C@H]2O)[C@@H]1O` [PLANTAINOSIDE D] stands 14.8 µM; under `C[C@@H]1O[C@@H](O[C@@H]2[C@@H](O)[C@H](OCCc3ccc(O)c(O)c3)O[C@H](CO)[C@H]2OC(=O)/C=C/c2ccc(O)c(O)c2)[C@H](O)[C@H](O)[C@H]1O` [ACETOSIDE], 9.3 µM; under `O=C(/C=C/c1ccc(O)c(O)c1)O[C@H]1[C@H](O)[C@@H](O)[C@H](OCCc2ccc(O)c(O)c2)O[C@@H]1CO` [CALCEOLARIOSIDE A], 0.6 µM. Under `COc1cc(/C=C/C(=O)O[C@H]2[C@H](O[C@@H]3O[C@@H](C)[C@H](O)[C@@H](O)[C@H]3O)[C@@H](O)[C@H](OCCc3ccc(O)c(O)c3)O[C@@H]2CO)ccc1O` [LEUCOSCEPTOSIDE A] stands 19 µM; under `O=C(/C=C/c1ccc(O)c(O)c1)OC[C@H]1O[C@@H](OCCc2ccc(O)c(O)c2)[C@H](O)[C@@H](O)[C@@H]1O` [CALCEOLARIOSIDE B], 4.6 µM. For `C[C@@H]1O[C@@H](OC[C@H]2O[C@@H](OCCc3ccc(O)c(O)c3)[C@H](O)[C@@H](O[C@@H]3O[C@@H](C)[C@H](O)[C@@H](O)[C@H]3O)[C@@H]2OC(=O)/C=C/c2ccc(O)c(O)c2)[C@H](O)[C@H](O)[C@H]1O` [POLIUMOSIDE], the IC50 was 24.4 µM.

On to `C[C@@H]1O[C@@H](OC[C@H]2O[C@@H](OCCc3ccc(O)c(O)c3)[C@H](O)[C@@H](O)[C@@H]2OC(=O)/C=C/c2ccc(O)c(O)c2)[C@H](O)[C@H](O)[C@H]1O` [FORSYTHIASIDE], for which the IC50 was found to be 1.9 µM.
